Measurements: patent US20040018238A1, “Biodegradable vehicles and delivery systems of biolgically active substances” (priority 2003, published 2004)
Structures can show the parent of a compound that is named as a salt. Blank lines part the entries; values can stand above or below the compound they belong to.

Experiments:
[1] = In vivo release of oxytetracycline from biodegradable delivery systems in quail; conditions: delivery systems with varying polymer molecular weights (FIG. 16)
Text: FIG. 16 describes the effect of varying polymer molecular weights on in vivo release of oxytetracycline base from biodegradable delivery systems.

[2] = In vitro release of oxytetracycline from drug-loaded formulations at 37° C. in isotonic phosphate buffer containing sodium sulfite; type: physicochemical; conditions: for drug release / drug release (rank among plasticizers): drug 20% w/w
Method: A polymer (25% w/w of 50/50 lactide-co-glycolide copolymer, inherent viscosity of 0.59) was dissolved in a minimum quantity of acetone. Pure polyethylene glycol 400 (PEG 400) was added to the polymer solution. The solution was stirred to yield a uniform mixture. Acetone was evaporated from the mixture by heating at 60-75° C. with constant stirring. The blank formulation was kept in a vacuum oven at 60-75° C. overnight to ensure complete removal of acetone. […] Three different concentrations of oxytetracycline base (either 10, 20 or 30% w/w) were added to the blank formulation and mixed thoroughly to ensure uniform distribution of the drug in the formulations. Drug release from the drug-loaded formulations was performed at 37° C. in isotonic phosphate buffer containing sodium sulfite as an antioxidant. […] This increase occurred because, at higher drug-loadings, more drug is available on the surface of the formulations for release. Moreover, a higher drug concentration gradient between the formulation and the dissolution medium is expected at 30% w/w drug-loading compared to the one at 10% w/w drug loading.
(§1) A polymer (25% w/w of 50/50 lactide-co-glycolide copolymer, inherent viscosity of 0.59) was dissolved in a minimum quantity of acetone. […] The resulting solutions were stirred to yield uniform mixtures. Acetone was evaporated from the mixtures by heating at 60-75° C. with constant stirring. The blank formulations were kept in a vacuum oven at 60-75° C. overnight to ensure complete removal of acetone. […] Oxytetracycline base (20% w/w) was added to each blank formulation and mixed thoroughly to ensure uniform distribution of the drug in the formulations. Drug release from the drug-loaded formulations was performed at 37° C. in isotonic phosphate buffer containing sodium sulfite as an antioxidant.
Three different concentrations (10, 20 or 25% w/w) of a polymer (50/50 lactide-co-glycolide copolymer, inherent viscosity of 0.59) were dissolved in a minimum quantity of acetone. Pure PEG 400 (90, 80 or 75% w/w) was added to the polymer solutions. The solutions were stirred to yield uniform mixtures. Acetone was evaporated from the mixtures by heating at 60-75° C. with constant stirring. The blank formulations were kept in a vacuum oven at 60-75° C. overnight to ensure complete removal of acetone. The resulting formulations obtained were matrices with varying viscosities or consistency. The formulation with 25% polymer was considerably more viscous than the one with 10% polymer. Oxytetracycline base (20% w/w) was added to each blank formulation and mixed thoroughly to ensure uniform distribution of the drug in the formulations. Drug release from the drug-loaded formulations was performed at 37° C. in isotonic phosphate buffer containing sodium sulfite as an antioxidant.
as §1, with “overmight” for “overnight”
The resulting solutions were stirred to yield uniform mixtures. Acetone was evaporated from the mixtures by heating at 60-75° C. with constant stirring. The blank formulations were kept in a vacuum oven at 60-75° C. overnight to ensure complete removal of acetone. […] Oxytetracycline base (20% w/w) was added to each blank formulation and mixed thoroughly to ensure uniform distribution of the drug in the formulations. […]

[3] = In vitro release of naltrexone from drug-loaded formulations at 37° C. in isotonic phosphate buffer; type: physicochemical; conditions: compared with hydrated naltrexone base; 25% 50/50 PLGA (i.v. 0.64) with pure PEG 400 or 50/50% PEG 400/TEC; drug 20% w/w
Method: The solutions were stirred to yield a uniform mixture. Acetone was evaporated from the mixtures by heating at 60-75° C. with constant stirring. The blank formulations were kept in a vacuum oven at 60-75° C. overnight to ensure complete removal of acetone. […] Either hydrated naltrexone base (20% w/w) or naltrexone hydrochloride (20% w/w) was added to the blank formulations and mixed thoroughly to ensure uniform distribution of the drugs in the formulations. Drug release from the drug-loaded formulations was performed at 37° C. in isotonic phosphate buffer. […] This is because the solubility of the naltrexone hydrochloride in the dissolution buffer is much greater than that of the hydrated naltrexone base.

[4] = Solubility in water / dissolution buffer; type: physicochemical

SMILES: CN(C)[C@@H]1C(=O)C(C(N)=O)=C(O)[C@@]2(O)C(=O)C3=C(O)c4c(O)cccc4[C@@](C)(O)[C@H]3[C@H](O)[C@@H]12 [oxytetracycline base]
in vivo release [1]: desired controlled release of the OTC was achieved | drug release ([2]; blend of 75% PEG 400 and 25% TEC compared with 50/50% PEG 400/TEC at similar polymer to plasticizer ratio): considerably faster | drug release ([2]; effect of decreasing polymer from 25% to 10% (PEG 400 75% to 90%), 50/50 PLGA i.v. 0.59): dramatically increased the drug release | drug release ([2]; effect of decreasing polymer inherent viscosity from 0.76 to 0.15, 50/50 PLGA, PEG 400): dramatically increased the drug release | drug release ([2]; effect of going from 0% PEG 400/100% TEC to 100% PEG 400/0% TEC, 25% w/w 50/50 PLGA (i.v. 0.59)): faster drug release | cumulative amount of drug released at the end of 360 hours ([2]; effect of increasing drug loading from 10 to 30% w/w, 25% w/w 50/50 PLGA (i.v. 0.59), PEG 400): increased the cumulative amount of drug released | drug release (rank among plasticizers) ([2]; formulations prepared with ATEC, 25% w/w 50/50 PLGA (i.v. 0.59)): slowest | drug release (rank among plasticizers) ([2]; formulations prepared with PEG 400, 25% w/w 50/50 PLGA (i.v. 0.59)): fastest | drug release (rank among plasticizers) ([2]; formulations prepared with TEC, 25% w/w 50/50 PLGA (i.v. 0.59)): Intermediate drug release | drug release ([2]; polymer to plasticizer ratio 1:5 (16.67% polymer) compared with 1:3 (25% polymer), PEG 400/TEC blends): faster drug release

SMILES: O=C1CC[C@@]2(O)[C@H]3Cc4ccc(O)c5c4[C@@]2(CCN3CC2CC2)[C@H]1O5 [naltrexone hydrochloride]
drug release [3]: considerably faster | solubility in the dissolution buffer ([4]; compared with hydrated naltrexone base, isotonic phosphate buffer): much greater

aqueous solubility ([4]; hydrochloride salt compared with the base): greater aqueous solubility
SMILES: CN(C)[C@@H]1C(O)=C(C(N)=O)C(=O)[C@@]2(O)C(O)=C3C(=O)c4c(O)cccc4[C@@](C)(O)[C@H]3[C@H](O)[C@@H]12 [oxytetracycline hydrochloride]
